Assay [1] deals with Influenza A virus. As to the kind of experiment: Antiviral activity against oseltamivir-resistant Influenza A virus A/WSN/1933/H275Y (pandemic H1N1) infected in MDCK cells assessed as protection against virus-induced cytopathic effect after 48 to 72 hrs by CellTiter 96 aqueous assay. The format is functional, organism-based, A/WSN/1933/H275Y(H1N1). Background: Damage to the host cells serves as the signal in cytopathic effect assays.

The test system of assay [2] is Influenza A virus. As to the kind of experiment: Antiviral activity against oseltamivir-resistant Influenza A virus A/Hong Kong/2369/09/H275Y(H1N1) infected in MDCK cells assessed as protection against virus-induced cytopathic effect after 48 to 72 hrs by CellTiter 96 aqueous assay. The format is functional, organism-based.

Drawing on ChEMBL document CHEMBL2203066 (J Med Chem, 2012), this text covers EC50 for three compounds.

The term EC50 denotes the concentration needed to bring the measured effect to its halfway point.

In the case of `CCOP(=O)(O)C1=C[C@@H](OC(CC)CC)[C@H](NC(C)=O)[C@@H](N)C1` [TAMIPHOSPHOR MONOETHYL ESTER], the values for the EC50 with Influenza A virus [1] and in the assay on Influenza A virus [2] were 0.49 µM and 0.44 µM, respectively.

In the case of `CCC(CC)O[C@@H]1C=C(P(=O)(O)O)C[C@H](N)[C@H]1NC(C)=O` [TAMIPHOSPHOR], the 50% effective concentration (EC50) in the assay on Influenza A virus [1] amounted to 7.4 µM; in the assay on Influenza A virus [2] it was 6.55 µM.

For the compound `CCC(CC)O[C@@H]1C=C(P(=O)(O)O)C[C@H](NC(=N)N)[C@H]1NC(C)=O`, the values for the EC50 in the assay on Influenza A virus [1] and with Influenza A virus [2] were 3.2 µM and 4.6 µM, respectively.
